Patent publication US11214803B2, “Modulators of YAP1 expression” (Ionis Pharmaceuticals, Inc., priority 2019, dated 2022)
Strand notation (5' to 3'): a small letter for the sugar, then the base; units joined by * are phosphorothioate-linked, units joined directly phosphodiester-linked; [ ] holds rarer units or linkages, { } end groups; capitals alone tell only the bases. k = constrained ethyl (cEt); [5mC] = 5-methylcytosine; d = 2'-deoxy (DNA)

Tested on: Yap1 mRNA
Assay: Antisense inhibition of human Yap1 in A-431 cells by cEt gapmers, single dose (Example 2, RTS4814)
Format: cell-based
Summary of the method: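 A-431 cells (5,000/well) took up 2,000 nM 3-10-3 cEt gapmer by free uptake for ~48 h. Yap1 mRNA was quantified by qRT-PCR with primer probe set RTS4814, normalized to RIBOGREEN total RNA, and reported as % of untreated control.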

[1] = Table 5, A-431 cells, 5,000 cells per well, free uptake, 2,000 nM modified oligonucleotide, approx. 48 hours, RTS4814, normalized to RIBOGREEN, Yap1 mRNA relative to untreated control cells
[2] = Table 21, Yap1 mRNA, percent of untreated control, 3-10-3 cEt gapmers targeting SEQ ID NO.: 1 and 2
[3] = Yap1 mRNA as percent of untreated control, A-431 cells, 3-10-3 cEt gapmers targeting SEQ ID NO.: 1, and 2, Table 31
[4] = Table 25, Yap1 mRNA as percent of untreated control, 3-10-3 cEt gapmers targeting SEQ ID NO.: 1, and 2
[5] = Table 23, Yap1 mRNA as percent of untreated control, 3-10-3 cEt gapmers, single dose
[6] = Table 19, A-431 cells, 5,000 cells per well, free uptake, 2,000 nM modified oligonucleotide, approx. 48 hours, RTS4814, normalized to RIBOGREEN, Yap1 mRNA as percent of untreated control
[7] = A-431 cells, 5,000 cells per well, free uptake, 2,000 nM modified oligonucleotide, approx. 48 hours, RTS4814, normalized to RIBOGREEN, Table 4, asterisk (*) = targets amplicon region of primer probe set
[8] = Table 32, Yap1 mRNA, percent of untreated control, 3-10-3 cEt gapmers targeting SEQ ID NO.: 1, and 2
[9] = Table 22, Yap1 mRNA as percent of untreated control, 3-10-3 cEt gapmers, single dose
[10] = Table 20, Yap1 mRNA, percent of untreated control, 3-10-3 cEt gapmers targeting SEQ ID NO.: 1 and 2
[11] = Yap1 mRNA as percent of untreated control, A-431 cells, 3-10-3 cEt gapmers targeting SEQ ID NO.: 1, and 2, Table 30
[12] = Table 6, A-431 cells, 5,000 cells per well, free uptake, 2,000 nM modified oligonucleotide, approx. 48 hours, RTS4814, normalized to RIBOGREEN, Yap1 mRNA relative to untreated control cells

716566 (kG*kG*kT*dA*dA*d[5mC]*dT*d[5mC]*dT*dT*d[5mC]*dT*dT*kT*k[5mC]*k[5mC]; antisense) [Compound 716566]
YAP1 (% UTC) [1]: 102 % UTC

1074407 (antisense kT*kA*kA*dA*dG*dT*dA*dT*d[5mC]*dT*dT*dG*d[5mC]*kT*kG*kG) [Compound 1074407]
YAP1 (% UTC) [2]: 6 % UTC

1074481 (kA*kA*kT*dA*dT*dG*dG*dT*d[5mC]*dA*dT*dT*dT*kG*k[5mC]*k[5mC]; antisense) [compound 1074481]
YAP1 (% UTC) [3]: 14 % UTC

1074283 (antisense kA*kA*kA*dA*d[5mC]*dG*dA*dG*dG*dG*dT*d[5mC]*dA*kA*kG*k[5mC]) [Compound 1074283]
YAP1 (% UTC) [4]: 12 % UTC

1074951 (antisense k[5mC]*kA*kT*d[5mC]*dA*dG*dG*dT*dT*dA*dA*dG*dT*kG*kA*kT) [Compound 1074951]
YAP1 (% UTC) [2]: 85 % UTC

1074635 (antisense kT*k[5mC]*k[5mC]*d[5mC]*dA*dA*dG*d[5mC]*dT*dG*dA*dG*dG*k[5mC]*kT*kT) [Compound 1074635]
YAP1 (% UTC) [4]: 31 % UTC

1074793 (kA*kA*kT*d[5mC]*dA*dA*dT*dG*dT*dG*d[5mC]*dT*d[5mC]*k[5mC]*kA*kT; antisense) [Compound 1074793]
YAP1 (% UTC) [5]: 9 % UTC

1074757 (kA*kG*kT*dT*dA*dA*dG*d[5mC]*dA*d[5mC]*dT*dT*dT*kT*kA*k[5mC]; antisense) [Compound 1074757]
YAP1 (% UTC) [6]: 21 % UTC

716442 (kG*k[5mC]*kA*d[5mC]*dT*dA*dG*dG*dA*dG*dG*dA*dA*kA*kA*kG; antisense) [Compound 716442]
YAP1 (% UTC) [7]: 63 % UTC

1074153 (antisense k[5mC]*kA*k[5mC]*dG*dG*dG*d[5mC]*d[5mC]*dG*dA*dG*dG*dT*kG*kG*kA) [Compound 1074153]
YAP1 (% UTC) [5]: 78 % UTC

716409 (k[5mC]*kA*kG*dG*dA*dA*dG*dT*d[5mC]*dA*dT*d[5mC]*dT*kG*kG*kG; antisense) [Compound 716409]
YAP1 (% UTC) [7]: 99 % UTC

1074661 (antisense kG*kA*kA*dT*dT*dT*d[5mC]*dA*dT*dT*dA*d[5mC]*dT*kA*k[5mC]*kT) [Compound 1074661]
YAP1 (% UTC) [6]: 36 % UTC

1076274 (kT*kG*kA*dG*dA*dA*dT*dA*dG*dA*dG*d[5mC]*dA*kG*kG*kT; antisense) [compound 1076274]
YAP1 (% UTC) [8]: 9 % UTC

1075944 (kT*kA*kT*dT*dA*dG*dG*dA*dA*d[5mC]*dA*dG*dA*kT*k[5mC]*kA; antisense) [Compound 1075944]
YAP1 (% UTC) [9]: 25 % UTC

1075110 (antisense kG*kA*k[5mC]*dT*dA*dA*dA*dA*dA*d[5mC]*dA*dT*dT*kG*kT*kG) [Compound 1075110]
YAP1 (% UTC) [10]: 120 % UTC

1074281 (antisense kG*kA*kG*dG*dG*dT*d[5mC]*dA*dA*dG*d[5mC]*d[5mC]*dT*kT*kG*kG) [Compound 1074281]
YAP1 (% UTC) [5]: 91 % UTC

716451 (k[5mC]*k[5mC]*k[5mC]*dA*dA*dG*d[5mC]*dT*dA*d[5mC]*dA*dA*d[5mC]*kT*kA*kT; antisense) [Compound 716451]
YAP1 (% UTC) [7]: 67 % UTC

1076297 (kT*kT*kA*dT*dA*dA*dA*dG*dA*d[5mC]*d[5mC]*d[5mC]*dA*kA*kT*kG; antisense) [Compound 1076297]
YAP1 (% UTC) [5]: 52 % UTC

1074864 (k[5mC]*kA*kT*dA*dT*dG*dA*dG*d[5mC]*dA*dT*dG*d[5mC]*kT*k[5mC]*kT; antisense) [compound 1074864]
YAP1 (% UTC) [11]: 47 % UTC

716464 (kT*kA*k[5mC]*dT*dT*d[5mC]*dA*dA*dA*d[5mC]*dA*dT*d[5mC]*kT*kG*k[5mC]; antisense) [Compound 716464]
YAP1 (% UTC) [1]: 62 % UTC

1074729 (antisense kA*k[5mC]*kA*d[5mC]*dT*dG*dA*dG*dG*dT*dA*dT*dA*kA*k[5mC]*kT) [Compound 1074729]
YAP1 (% UTC) [5]: 9 % UTC

716378 (kG*k[5mC]*kA*dG*dA*dG*dG*dT*dA*d[5mC]*dA*dT*d[5mC]*kA*kT*k[5mC]; antisense) [Compound 716378]
YAP1 (% UTC) [12]: 44 % UTC

716411 (kT*k[5mC]*kT*dG*d[5mC]*dT*dG*dT*dG*dA*dG*dG*dG*k[5mC]*kA*kG; antisense) [Compound 716411]
YAP1 (% UTC) [12]: 102 % UTC

1074888 (antisense kG*kT*kT*dT*dA*dG*d[5mC]*d[5mC]*dT*dG*dA*dA*dG*k[5mC]*kA*kA) [Compound 1074888]
YAP1 (% UTC) [9]: 58 % UTC

716375 (kG*kA*kG*dA*d[5mC]*dT*dA*d[5mC]*dT*d[5mC]*d[5mC]*dA*dG*kT*kG*kG; antisense) [Compound 716375]
YAP1 (% UTC) [12]: 63 % UTC

1074929 (antisense kT*kA*kT*dA*d[5mC]*dA*dA*d[5mC]*dA*dG*dG*d[5mC]*d[5mC]*kT*kG*k[5mC]) [compound 1074929]
YAP1 (% UTC) [3]: 79 % UTC

1075698 (kG*kT*kT*dT*dA*dA*dT*dA*dA*dT*d[5mC]*d[5mC]*dA*kT*kG*k[5mC]; antisense) [compound 1075698]
YAP1 (% UTC) [8]: 10 % UTC

1074706 (antisense kT*kT*kA*dA*dT*dG*dG*d[5mC]*dA*dG*d[5mC]*dA*d[5mC]*kG*kG*kT) [compound 1074706]
YAP1 (% UTC) [8]: 48 % UTC

716436 (kA*k[5mC]*kT*dG*dG*dA*d[5mC]*dA*dA*dA*dG*dG*dA*kA*kG*k[5mC]; antisense) [Compound 716436]
YAP1 (% UTC) [7]: 59 % UTC

716445 (kG*kT*kA*dT*dG*dT*dG*dG*d[5mC]*dA*dA*dT*dA*kA*kT*kT; antisense) [Compound 716445]
YAP1 (% UTC) [7]: 28 % UTC

1075017 (antisense k[5mC]*kT*kT*dA*dA*dA*dG*dT*dG*dA*dT*dA*d[5mC]*kA*k[5mC]*k[5mC]) [Compound 1075017]
YAP1 (% UTC) [5]: 19 % UTC

1074859 (antisense kG*kT*kA*dA*d[5mC]*dA*dT*dT*dG*dG*dT*dA*d[5mC]*kT*kA*kT) [Compound 1074859]
YAP1 (% UTC) [4]: 16 % UTC

1074643 (antisense kT*kT*kG*dA*dA*dG*dG*dG*d[5mC]*d[5mC]*dA*dA*dA*kA*kT*kA) [compound 1074643]
YAP1 (% UTC) (Table 33, Yap1 mRNA, percent of untreated control, 3-10-3 cEt gapmers targeting SEQ ID NO.: 1, and 2): 68 % UTC

1075019 (antisense k[5mC]*kA*kT*dT*dA*dG*dA*dG*dT*dT*dT*dG*dA*kT*kT*kA) [Compound 1075019]
YAP1 (% UTC) [4]: 64 % UTC

1076426 (kA*k[5mC]*kG*dG*dG*dA*dA*dA*dA*dT*dT*d[5mC]*dT*kG*kG*kA; antisense) [Compound 1076426]
YAP1 (% UTC) (Table 24, Yap1 mRNA as percent of untreated control, 3-10-3 cEt gapmers targeting SEQ ID NO.: 1, and 2): 9 % UTC

1075024 (antisense kA*k[5mC]*kT*dG*dA*dA*d[5mC]*dA*dA*dG*dT*dA*dT*k[5mC]*kT*kT) [compound 1075024]
YAP1 (% UTC) [11]: 32 % UTC

1075972 (kT*k[5mC]*kA*d[5mC]*dA*dA*dG*dG*dG*d[5mC]*dT*dA*dA*kT*kT*k[5mC]; antisense) [Compound 1075972]
YAP1 (% UTC) (Table 18, A-431 cells, 5,000 cells per well, free uptake, 2,000 nM modified oligonucleotide, approx. 48 hours, RTS4814, normalized to RIBOGREEN, Yap1 mRNA as percent of untreated control): 22 % UTC

1074887 (antisense kT*kA*kG*d[5mC]*d[5mC]*dT*dG*dA*dA*dG*d[5mC]*dA*dA*kG*kT*kT) [Compound 1074887]
YAP1 (% UTC) [2]: 57 % UTC

716453 (kG*kG*kT*dA*dA*dA*dA*dA*dA*dA*dA*d[5mC]*d[5mC]*kA*kG*kG; antisense) [Compound 716453]
YAP1 (% UTC) [12]: 87 % UTC

1075974 (kA*kA*kA*dA*dA*dA*dT*dT*d[5mC]*d[5mC]*dG*d[5mC]*dA*kA*k[5mC]*kA; antisense) [Compound 1075974]
YAP1 (% UTC) [10]: 39 % UTC

1075595 (kT*kA*kT*dA*dA*dT*dA*d[5mC]*dA*dT*d[5mC]*dT*d[5mC]*k[5mC]*k[5mC]*k[5mC]; antisense) [Compound 1075595]
YAP1 (% UTC) [4]: 50 % UTC

1075857 (antisense k[5mC]*kT*kT*dA*dA*dA*d[5mC]*dA*dA*dT*d[5mC]*d[5mC]*d[5mC]*kT*kA*kA) [compound 1075857]
YAP1 (% UTC) [3]: 69 % UTC

716561 (kA*kA*kG*dG*dT*dA*dT*dT*dA*d[5mC]*dA*dT*dA*kA*kG*kA; antisense) [Compound 716561]
YAP1 (% UTC) [12]: 58 % UTC
